According to ChEMBL document CHEMBL1154267, “Imidazo[1,5-a][1,2,4]-triazolo[1,5-d][1,4]benzodiazepines as potent and highly selective GABAA alpha5 inverse agonists with potential for the treatment of cognitive dysfunction” (Bioorg Med Chem Lett, 2009):
≈ marks a conversion by molar mass, not a printed value. Calls of active or inactive are those of the source. The calls are words filed in the database; no cut-off is given here.

Columns and labels:
[1] = Oral bioavailability in rat; assay type: ADME, organism-based; settings: in vivo
[2] = Ratio of drug level in brain to plasma in rat; assay type: ADME, organism-based; settings: brain and plasma
[3] = Lipophilicity, log D at pH 7.4; assay type: physicochemical; settings: buffer
[4] = target: T1, GABA-A receptor; alpha-5/beta-3/gamma-2 (Homo sapiens, UniProt P18507+P28472+P31644); experiment: Displacement of [3H]flumazenil from GABAA alpha-5-beta-3-gamma-2 receptor; assay type: protein-complex assay
T1 sequence (P18507 whole entry): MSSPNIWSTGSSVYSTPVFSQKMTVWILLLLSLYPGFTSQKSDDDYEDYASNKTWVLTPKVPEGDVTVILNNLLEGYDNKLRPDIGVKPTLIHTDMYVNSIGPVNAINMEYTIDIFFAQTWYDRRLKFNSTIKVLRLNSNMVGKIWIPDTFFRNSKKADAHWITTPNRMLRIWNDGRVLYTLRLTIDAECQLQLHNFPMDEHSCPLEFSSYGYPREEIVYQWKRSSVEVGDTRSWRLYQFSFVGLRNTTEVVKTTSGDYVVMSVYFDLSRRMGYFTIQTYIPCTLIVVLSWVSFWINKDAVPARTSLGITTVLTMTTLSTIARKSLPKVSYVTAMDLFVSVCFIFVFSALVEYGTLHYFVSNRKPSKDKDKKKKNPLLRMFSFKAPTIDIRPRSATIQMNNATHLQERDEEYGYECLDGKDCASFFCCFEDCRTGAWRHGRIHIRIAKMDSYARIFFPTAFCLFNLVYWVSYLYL
T1 sequence (P28472 whole entry): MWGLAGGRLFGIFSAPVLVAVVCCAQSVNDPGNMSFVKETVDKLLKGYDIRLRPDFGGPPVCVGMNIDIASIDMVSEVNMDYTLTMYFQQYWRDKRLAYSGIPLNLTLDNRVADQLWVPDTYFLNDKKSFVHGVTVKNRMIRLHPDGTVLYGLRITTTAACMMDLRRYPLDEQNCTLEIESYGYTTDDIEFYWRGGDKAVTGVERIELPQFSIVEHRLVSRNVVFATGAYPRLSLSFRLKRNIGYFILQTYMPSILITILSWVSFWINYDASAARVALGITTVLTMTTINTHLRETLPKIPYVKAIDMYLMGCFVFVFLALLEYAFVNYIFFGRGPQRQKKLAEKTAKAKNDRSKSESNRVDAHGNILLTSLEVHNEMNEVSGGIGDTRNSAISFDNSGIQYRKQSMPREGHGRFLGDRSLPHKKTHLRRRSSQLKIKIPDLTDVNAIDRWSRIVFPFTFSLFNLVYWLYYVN
T1 sequence (P31644 whole entry): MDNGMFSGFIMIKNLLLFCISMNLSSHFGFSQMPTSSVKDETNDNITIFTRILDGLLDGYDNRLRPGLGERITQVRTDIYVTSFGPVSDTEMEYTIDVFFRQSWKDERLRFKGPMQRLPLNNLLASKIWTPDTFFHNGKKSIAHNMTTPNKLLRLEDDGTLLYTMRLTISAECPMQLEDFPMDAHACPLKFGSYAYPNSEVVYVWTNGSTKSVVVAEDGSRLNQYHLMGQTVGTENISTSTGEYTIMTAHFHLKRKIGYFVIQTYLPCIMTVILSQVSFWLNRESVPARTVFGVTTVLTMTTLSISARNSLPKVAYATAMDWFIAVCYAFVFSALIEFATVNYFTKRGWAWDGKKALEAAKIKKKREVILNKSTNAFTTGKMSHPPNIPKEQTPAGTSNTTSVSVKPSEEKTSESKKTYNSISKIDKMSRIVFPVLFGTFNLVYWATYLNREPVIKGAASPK

[5] = Solubility of the compound; assay type: physicochemical
[6] = Permeability by PAMPA; assay type: ADME; settings: read-out: permeability
[7] = Clearance in rat; assay type: ADME, organism-based; settings: in vivo
[8] = Half life in rat; assay type: ADME, organism-based; settings: in vivo
Rattus norvegicus [9] = experiment: Behavioral effect in Lister hooded rat assessed as reversal of Scopolamine-induced impairment of working memory at 1 mg/kg, po administered 30 mins before Scopolamine challenge by delayed match to position test; assay type: functional, organism-based; set-up: dose 1 mg/kg
[10] = Volume of distribution at steady state in rat; assay type: ADME, organism-based; settings: in vivo, read-out: Vdss
[11] = Selectivity ratio of Ki for GABAA alpha-2-beta-3-gamma-2 receptor to Ki for GABAA alpha-5-beta-3-gamma-2 receptor
Rattus norvegicus [12] = species on record: Rattus norvegicus; experiment: Toxicity in Lister hooded rat assessed as behavioral impairment; assay type: organism-based; settings: in vivo
Liver microsomes = experiment: Clearance in rat liver microsomes; assay type: ADME, Microsome
[13] = Selectivity ratio of Ki for GABAA alpha-3-beta-3-gamma-2 receptor to Ki for GABAA alpha-5-beta-3-gamma-2 receptor
[14] = Selectivity ratio of Ki for GABAA alpha-1-beta-3-gamma-2 receptor to Ki for GABAA alpha-5-beta-3-gamma-2 receptor
[15] = target: GABA-A receptor; alpha-5/beta-3/gamma-2 (Homo sapiens) (UniProt P18507+P28472+P31644); experiment: Inverse agonist activity at GABAA alpha-5-beta-3-gamma-2 receptor assessed as modulation of GABA-induced chloride ion flux by electrophysiology assay relative to GABA; assay type: functional

## Cc1cc(Cc2nc3n(n2)Cc2c(C)ncn2-c2ccc(Cl)cc2-3)on1
[1]
  bioavailability: 44%
[2]
  Kp: 1
[3]
  logD: 2.3
[4]
  Ki: 0.6 nM
[5]
  solubility: 14 µg/mL (≈ 38.2 µM)
[6]
  Papp: 3.1 ×10⁻⁶ cm/s
[7]
  clearance: 9.5 mL/min/kg
[8]
  half-life: 1.4 h
Rattus norvegicus [9]
  Activity: Active
[10]
  Vd: 1.8 L/kg
[11]
  Ratio Ki: 251
Rattus norvegicus [12]
  Activity: Non-toxic
Liver microsomes
  CL: 6000 µL/min/mg
[13]
  Ratio Ki: 223
[14]
  Ratio Ki: 466
[15]
  Efficacy: -18%
